According to the supplement of paper PMC10307832:

Tests used:
Experiment in all cases: relative viability (nuclei count vs DMSO), 5 days (fraction); higher = more cells survive
H3255 = test system: H3255
Method in brief: (§1)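 Values are medians from duplicate plates. Each reflects relative viability, defined as the nuclei count of treated wells over that of vehicle wells. Lung cancer cell lines in 1536-well plates were pin-tool dosed one day after seeding with one drug alone or with a fixed anchor-drug dose plus five library-drug doses (not always all listed) in √10 steps, then fixed, stained and imaged at 4× after 5 days.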

NCI-H2405 = test system: NCI-H2405
Method in brief: as §1

NCI-H2347 = test system: NCI-H2347
Method in brief: as §1

NCI-H650 = test system: NCI-H650
Method in brief: as §1

HOP-62 = test system: HOP-62
Method in brief: as §1

NCI-H358 = test system: NCI-H358
Method in brief: as §1

NCI-H23 = test system: NCI-H23
Method in brief: as §1

NCI-H441 = test system: NCI-H441
Method in brief: as §1

NCI-H1395 = test system: NCI-H1395
Method in brief: as §1

BEN = test system: BEN
Method in brief: as §1

201T = test system: 201T
Method in brief: as §1

NCI-H2342 = test system: NCI-H2342
Method in brief: as §1

EMC-BAC-2 = test system: EMC-BAC-2
Method in brief: as §1

CAL-12T = test system: CAL-12T
Method in brief: as §1

ChaGo-K-1 = test system: ChaGo-K-1
Method in brief: as §1

NCI-H1734 = test system: NCI-H1734
Method in brief: as §1

SW 900 = test system: SW 900
Method in brief: as §1

NCI-H522 = test system: NCI-H522
Method in brief: as §1

NCI-H1944 = test system: NCI-H1944
Method in brief: as §1

HCC-15 = test system: HCC-15
Method in brief: as §1

LU99A = test system: LU99A
Method in brief: as §1

NCI-H2023 = test system: NCI-H2023
Method in brief: as §1

SK-LU-1 = test system: SK-LU-1
Method in brief: as §1

NCI-H2009 = test system: NCI-H2009
Method in brief: as §1

NCI-H1650 = test system: NCI-H1650
Method in brief: as §1

## Nc1cccc2c1CN(C1CCC(=O)NC1=O)C2=O (stereo not drawn) [Lenalidomide] + NC(=O)Nc1cc(-c2cccc(F)c2)sc1C(=O)N[C@H]1CCCNC1 [AZD7762] (partner 0.2 µM)
H3255; first compound 0.253 µM
  relative viability: 0.936
H3255; first compound 0.8 µM
  relative viability: 0.747
H3255; first compound 2.53 µM
  relative viability: 0.93
H3255; first compound 8 µM
  relative viability: 0.823
NCI-H2405; first compound 0.253 µM
  relative viability: 0.681
NCI-H2405; first compound 0.8 µM
  relative viability: 0.498
NCI-H2405; first compound 2.53 µM
  relative viability: 0.815
NCI-H2405; first compound 8 µM
  relative viability: 0.821
NCI-H2347; first compound 0.253 µM
  relative viability: 0.787
NCI-H2347; first compound 0.8 µM
  relative viability: 0.689
NCI-H2347; first compound 2.53 µM
  relative viability: 0.811
NCI-H2347; first compound 8 µM
  relative viability: 0.703
NCI-H650; first compound 0.253 µM
  relative viability: 1.06
NCI-H650; first compound 0.8 µM
  relative viability: 0.927
NCI-H650; first compound 2.53 µM
  relative viability: 1.06
NCI-H650; first compound 8 µM
  relative viability: 0.89
HOP-62; first compound 0.253 µM
  relative viability: 0.552
HOP-62; first compound 0.8 µM
  relative viability: 0.838
HOP-62; first compound 2.53 µM
  relative viability: 0.711
HOP-62; first compound 8 µM
  relative viability: 0.533
NCI-H358; first compound 0.253 µM
  relative viability: 0.521
NCI-H358; first compound 0.8 µM
  relative viability: 0.713
NCI-H358; first compound 2.53 µM
  relative viability: 0.494
NCI-H358; first compound 8 µM
  relative viability: 0.621
NCI-H23; first compound 0.253 µM
  relative viability: 0.253
NCI-H23; first compound 2.53 µM
  relative viability: 0.22
NCI-H23; first compound 8 µM
  relative viability: 0.229
NCI-H441; first compound 0.253 µM
  relative viability: 1.3
NCI-H441; first compound 0.8 µM
  relative viability: 1.15
NCI-H441; first compound 2.53 µM
  relative viability: 1.17
NCI-H441; first compound 8 µM
  relative viability: 1.26
NCI-H1395; first compound 0.253 µM
  relative viability: 0.405
NCI-H1395; first compound 2.53 µM
  relative viability: 0.387
NCI-H1395; first compound 8 µM
  relative viability: 0.376
BEN; first compound 0.253 µM
  relative viability: 0.783
BEN; first compound 0.8 µM
  relative viability: 0.503
BEN; first compound 2.53 µM
  relative viability: 0.701
BEN; first compound 8 µM
  relative viability: 0.563
201T; first compound 0.253 µM
  relative viability: 0.594
201T; first compound 0.8 µM
  relative viability: 0.848
201T; first compound 2.53 µM
  relative viability: 0.617
201T; first compound 8 µM
  relative viability: 0.529
NCI-H2342; first compound 0.253 µM
  relative viability: 0.494
NCI-H2342; first compound 0.8 µM
  relative viability: 0.402
NCI-H2342; first compound 2.53 µM
  relative viability: 0.529
NCI-H2342; first compound 8 µM
  relative viability: 0.449
EMC-BAC-2; first compound 0.253 µM
  relative viability: 1.12
EMC-BAC-2; first compound 0.8 µM
  relative viability: 0.64
EMC-BAC-2; first compound 2.53 µM
  relative viability: 1.19
EMC-BAC-2; first compound 8 µM
  relative viability: 0.931
CAL-12T; first compound 0.253 µM
  relative viability: 0.668
CAL-12T; first compound 0.8 µM
  relative viability: 0.564
CAL-12T; first compound 2.53 µM
  relative viability: 0.737
CAL-12T; first compound 8 µM
  relative viability: 0.666
ChaGo-K-1; first compound 0.253 µM
  relative viability: 0.916
ChaGo-K-1; first compound 0.8 µM
  relative viability: 0.853
ChaGo-K-1; first compound 2.53 µM
  relative viability: 1.02
ChaGo-K-1; first compound 8 µM
  relative viability: 0.893
NCI-H1734; first compound 0.253 µM
  relative viability: 0.586
NCI-H1734; first compound 0.8 µM
  relative viability: 0.597
NCI-H1734; first compound 2.53 µM
  relative viability: 0.618
NCI-H1734; first compound 8 µM
  relative viability: 0.494
SW 900; first compound 2.53 µM
  relative viability: 0.578
SW 900; first compound 8 µM
  relative viability: 0.456
NCI-H522; first compound 0.253 µM
  relative viability: 0.858
NCI-H522; first compound 0.8 µM
  relative viability: 0.882
NCI-H522; first compound 2.53 µM
  relative viability: 0.758
NCI-H522; first compound 8 µM
  relative viability: 0.758
NCI-H1944; first compound 0.253 µM
  relative viability: 0.545
NCI-H1944; first compound 2.53 µM
  relative viability: 0.709
NCI-H1944; first compound 8 µM
  relative viability: 0.386
HCC-15; first compound 0.253 µM
  relative viability: 1.11
HCC-15; first compound 0.8 µM
  relative viability: 1.22
HCC-15; first compound 2.53 µM
  relative viability: 1.35
HCC-15; first compound 8 µM
  relative viability: 1.36
LU99A; first compound 0.253 µM
  relative viability: 0.311
LU99A; first compound 0.8 µM
  relative viability: 0.341
LU99A; first compound 2.53 µM
  relative viability: 0.397
LU99A; first compound 8 µM
  relative viability: 0.257

## Nc1cccc2c1CN(C1CCC(=O)NC1=O)C2=O (stereo not drawn) [Lenalidomide] + Nc1ncn([C@H]2C[C@H](O)[C@@H](CO)O2)c(=O)n1 [Decitabine] (partner 2 µM)
NCI-H2023; first compound 0.253 µM
  relative viability: 0.205
NCI-H2023; first compound 0.8 µM
  relative viability: 0.269
NCI-H2023; first compound 2.53 µM
  relative viability: 0.248
NCI-H2023; first compound 8 µM
  relative viability: 0.231
H3255; first compound 0.253 µM
  relative viability: 0.592
H3255; first compound 0.8 µM
  relative viability: 0.556
H3255; first compound 2.53 µM
  relative viability: 0.563
H3255; first compound 8 µM
  relative viability: 0.421
NCI-H2405; first compound 0.253 µM
  relative viability: 0.719
NCI-H2405; first compound 0.8 µM
  relative viability: 0.817
NCI-H2405; first compound 2.53 µM
  relative viability: 0.782
NCI-H2405; first compound 8 µM
  relative viability: 0.632
NCI-H2347; first compound 0.253 µM
  relative viability: 0.616
NCI-H2347; first compound 0.8 µM
  relative viability: 0.617
NCI-H2347; first compound 2.53 µM
  relative viability: 0.624
NCI-H2347; first compound 8 µM
  relative viability: 0.566
NCI-H650; first compound 0.253 µM
  relative viability: 0.312
NCI-H650; first compound 0.8 µM
  relative viability: 0.349
NCI-H650; first compound 2.53 µM
  relative viability: 0.351
NCI-H650; first compound 8 µM
  relative viability: 0.332
SK-LU-1; first compound 0.253 µM
  relative viability: 0.614
SK-LU-1; first compound 0.8 µM
  relative viability: 0.58
SK-LU-1; first compound 2.53 µM
  relative viability: 0.72
SK-LU-1; first compound 8 µM
  relative viability: 0.603
HOP-62; first compound 0.253 µM
  relative viability: 0.264
HOP-62; first compound 0.8 µM
  relative viability: 0.239
HOP-62; first compound 2.53 µM
  relative viability: 0.224
HOP-62; first compound 8 µM
  relative viability: 0.212
NCI-H358; first compound 0.8 µM
  relative viability: 0.228
NCI-H358; first compound 2.53 µM
  relative viability: 0.232
NCI-H358; first compound 8 µM
  relative viability: 0.22
NCI-H23; first compound 0.253 µM
  relative viability: 0.302
NCI-H23; first compound 2.53 µM
  relative viability: 0.315
NCI-H23; first compound 8 µM
  relative viability: 0.305
NCI-H441; first compound 0.253 µM
  relative viability: 0.233
NCI-H441; first compound 0.8 µM
  relative viability: 0.229
NCI-H441; first compound 2.53 µM
  relative viability: 0.264
NCI-H441; first compound 8 µM
  relative viability: 0.262
NCI-H1395; first compound 0.253 µM
  relative viability: 0.763
NCI-H1395; first compound 2.53 µM
  relative viability: 0.743
NCI-H1395; first compound 8 µM
  relative viability: 0.703
NCI-H2009; first compound 0.253 µM
  relative viability: 0.415
NCI-H2009; first compound 0.8 µM
  relative viability: 0.387
NCI-H2009; first compound 2.53 µM
  relative viability: 0.406
NCI-H2009; first compound 8 µM
  relative viability: 0.397
BEN; first compound 0.253 µM
  relative viability: 0.728
BEN; first compound 0.8 µM
  relative viability: 0.635
BEN; first compound 2.53 µM
  relative viability: 0.766
BEN; first compound 8 µM
  relative viability: 0.62
201T; first compound 0.253 µM
  relative viability: 0.874
201T; first compound 0.8 µM
  relative viability: 0.927
201T; first compound 2.53 µM
  relative viability: 0.88
201T; first compound 8 µM
  relative viability: 0.816
NCI-H2342; first compound 0.253 µM
  relative viability: 0.687
NCI-H2342; first compound 0.8 µM
  relative viability: 0.678
NCI-H2342; first compound 2.53 µM
  relative viability: 0.624
NCI-H2342; first compound 8 µM
  relative viability: 0.699
EMC-BAC-2; first compound 0.253 µM
  relative viability: 0.998
EMC-BAC-2; first compound 0.8 µM
  relative viability: 0.929
EMC-BAC-2; first compound 2.53 µM
  relative viability: 0.995
EMC-BAC-2; first compound 8 µM
  relative viability: 0.801
ChaGo-K-1; first compound 0.253 µM
  relative viability: 0.519
ChaGo-K-1; first compound 0.8 µM
  relative viability: 0.551
ChaGo-K-1; first compound 2.53 µM
  relative viability: 0.525
ChaGo-K-1; first compound 8 µM
  relative viability: 0.538
NCI-H1650; first compound 0.253 µM
  relative viability: 0.387
NCI-H1650; first compound 0.8 µM
  relative viability: 0.424
NCI-H1650; first compound 2.53 µM
  relative viability: 0.419
NCI-H1650; first compound 8 µM
  relative viability: 0.479
NCI-H1734; first compound 0.253 µM
  relative viability: 0.508
NCI-H1734; first compound 0.8 µM
  relative viability: 0.478
NCI-H1734; first compound 2.53 µM
  relative viability: 0.568
NCI-H1734; first compound 8 µM
  relative viability: 0.485
SW 900; first compound 2.53 µM
  relative viability: 0.51
SW 900; first compound 8 µM
  relative viability: 0.532
NCI-H522; first compound 0.253 µM
  relative viability: 0.759
NCI-H522; first compound 0.8 µM
  relative viability: 0.76
NCI-H522; first compound 2.53 µM
  relative viability: 0.694
NCI-H522; first compound 8 µM
  relative viability: 0.626
NCI-H1944; first compound 0.253 µM
  relative viability: 0.446
NCI-H1944; first compound 2.53 µM
  relative viability: 0.457
NCI-H1944; first compound 8 µM
  relative viability: 0.393
HCC-15; first compound 0.253 µM
  relative viability: 0.766
HCC-15; first compound 2.53 µM
  relative viability: 0.763
HCC-15; first compound 8 µM
  relative viability: 0.594
LU99A; first compound 0.253 µM
  relative viability: 0.894
LU99A; first compound 0.8 µM
  relative viability: 0.823
LU99A; first compound 2.53 µM
  relative viability: 0.868
LU99A; first compound 8 µM
  relative viability: 0.702
